Measured values: patent US20230107216A1, “PANTETHEINE DERIVATIVES AND USES THEREOF” (Comet Therapeutics, Inc., priority 2018, published 2023)
Read-outs that look alike come from different tables or passages of the source.

How the values were obtained:
[1] = system: Propionic Acidemia (PA) primary fibroblasts Tsi 6337; assay: Mitochondrial respiration, XFe96 Extracellular Flux Analyzer (OCR/ECAR), PA fibroblasts Tsi 6337; assay type: cell-based; settings: Homo sapiens, Fibroblast, read-out: Increase in Maximal Respiratory Capacity AUC
Method: The effect of the compounds of the present disclosure on mitochondrial respiration was measured with a XFe96 Extracellular Flux Analyzer (Seahorse Bioscience, Agilent Technologies) and Oxygen consumption Rate (OCR) and Extracellular acidification rate (ECAR) determined.
Cell culture and treatments. Primary adherent fibroblasts were cultured in minimum essential medium (MEM) (Gibco, 25030081) supplemented with 2 mM L-Glutamine (Gibco, 25030081), 15% fetal bovine serum (FBS) (Gibco, 26400044) and 1% penicillin/streptomycin (Gibco, 5140122) at 37° C. and 5% CO2. Cells were collected for either passaging or experiment at ˜70-80% confluence. Cells were obtained by trypsinization and seeded at 20000 cells/well in cell culture microplates (Seahorse Bioscience, 101085-004) and allowed to adhere for 16 hours in culture media.
By profiling different primary cells and/or optimizing their culture media or environmental components one can select cell lines and/or conditions that are appropriate for the biological or disease model. In the present example, 24 hours prior to OCR and ECAR profiling, media was changed to Dulbecco's Modified Eagle Medium (DMEM, Agilent Seahorse 103575-100) with the appropriate supplements for the different primary cells (10 mM glucose, 2 mM L-glutamine, 1 mM pyruvate, 10% FBS; 1 mM glucose, 2 mM L-glutamine, 1 mM pyruvate, 10% FBS; 10 mM glucose, 10% FBS; 5 mM glucose 10% FBS; 1 mM glucose 10% FBS). Cells used in this example were: Propionic Acidemia (PA) (GM00371, GM03590 Coriell Institute for Medical Research, Tsi 6337, Tsi 4626, Tsi 3618 Trans-Hit Bio), Methylmalonic Acidemia (MMA) (GM01673, Coriell Institute for Medical Research, Tsi 5224 Trans-Hit Bio), Branched chain ketoacid dehydrogenase kinase (BCKDK) (GM00612, GM00649 Coriell Institute for Medical Research), Subnormal activation of pyruvate dehydrogenase complex (PDH) (GM01503 Coriell Institute for Medical Research), Very long-chain acyl-CoA dehydrogenase (VLCAD) (GM17475), Leigh Syndrome (LS) (GM03672, GM13411 Coriell Institute for Medical Research), Pyruvate Carboxylase Deficiency (PC) (GM00444 Coriell Institute for Medical Research), Glutaric Acidemia-I (GA) (GM10653), Friedreich's Ataxia (FXN) (GM04078 Coriell Institute for Medical Research, Huntington's disease (HD) (GM21756 Coriell Institute for Medical Research), Ornithine Transcarbamylase Deficiency (OTC) (GM12756 Coriell Institute for Medical Research), Kearns-Sayre Syndrome (KSS) (GM06225 Coriell Institute for Medical Research).
One hour before the assay, the cells were washed with freshly prepared unbuffered serum free-Seahorse XF Assay medium (Seahorse Bioscience, North America, USA, 103575-100) with the same supplements as for the previous 24 hour incubation.
After baseline measurements of OCR, cells were challenged with compounds of the present disclosure at different concentrations (10 to 50 μM) or vehicle (DMSO, 0.1%) and a post-compound baseline was recorded. OCR was measured after sequentially adding to each well 1 μg/ml oligomycin (inhibitor of ATP synthase Sigma-Aldrich, 753531), then maximal OCR was determined with carbonyl cyanide 4-(trifluoromethoxy) phenylhydrazone (FCCP, Sigma-Aldrich, C2920), (uncoupler of oxidative phosphorylation) and 0.5 μM of rotenone (Sigma-Aldrich, R8875) plus antimycin A (Sigma-Aldrich, A8674) (inhibitors of mitochondrial complex I and III) for determination of rotenone-antimycin insensitive respiration together with Hoechst for nuclear staining in situ when normalized to cell counts. After the analysis and nuclear staining, the XFp microplate was transferred to the Cytation 5, and the nuclear images were captured, the individual nuclei were identified and counted by BioTek Gen5 software. Data were expressed as pmol of O2 per minute and normalized by nuclear staining and baselined to pre-compound addition.
Assay conditions were as stated below.
Assay specifics on assay conditions are indicated below when readouts were normalized to cell counts. […]

[2] = system: Peripheral blood mononuclear cells co-cultured with B-cells (BT system); assay: cells; settings: Homo sapiens, 72 h; for activation at 10 µM / activation at 1 µM: read-out: % increase in sIL-6
[3] = system: Keratinocytes co-cultured with dermal fibroblast (KF3CT system); assay: BioMAP KF3CT system (IL-1β, TNFα, IFNγ, TGFβ); assay type: cell-based, human; settings: for % increase in MCP-1: procedure of Example 834
Method: The BioMAP platform (BioMAP® Diversity PLUS® Panel from Eurofins) is an in vitro phenotypic profiling technology that screened the compounds of the present disclosure (hereafter indicated as test agents) in human primary cell-based systems modelling complex tissue and disease states. The BioMAP assays were performed using the Eurofin's BioMAP Technology Platform as (see references 1 to 13 in the example 824 section) to model different diseases on primary cell-based model systems. These systems consisted of either single primary cell types or co-culture cells. Adherent cell types were cultured or co-cultured in 96 or 384-well plates until confluence followed by the addition of compounds prepared in DMSO at a final concentration of ≤0.1%. In each cell-based system, primary cells from heathy donors (2-6 donors) were pooled and treated with compounds at 1 and 10 μM dose 1h prior to stimulation and remain in culture as indicated in Example 825, Example 826, Example 827, Example 828, Example 829, Example 830, Example 831, Example 832, Example 833, Example 834, Example 835, Example 836 and Example 837. For on the BioMAP® Diversity PLUS® Panel, please see the following references, which are incorporate herein.
Following the general procedure as described in Example 824, Keratinocytes were co-cultured with dermal fibroblast (KF3CT system) and treated with IL-1β, TNFα, IFNγ and TGFβ for 24h in the presence or absence of the compounds to model psoriasis, dermatitis and skin biology. Biomarkers read out were; MCP-1, ICAM-1, IP-10, IL-8, MIG, IL-1α, MMP-9, PAI-1, SRB, TIMP-2, uPA.

[4] = PA Tsi 6337, assay condition A (10 mM glucose, 2 mM L-glutamine, 1 mM pyruvate, 10% FBS)
[5] = PA Tsi 6337, assay condition D (1 mM glucose, 10% FBS)

COC(=O)CC[C@H](N)C(=O)SCCNC(=O)CCNC(=O)[C@H](O)C(C)(C)CO [Compound 411]
activation at 10 µM [1, 4]: ≥ 10%
activation at 10 µM [1, 5]: ≥ 10%

CC(=O)SCCNC(=O)CCNC(=O)[C@H](O)C(C)(C)COC(=O)[C@@H](N)Cc1ccc(O)c(O)c1 [Compound 498, (3R)-3-[(2-[[2-(acetylsulfanyl)ethyl]carbamoyl]ethyl)carbamoyl]-3-hydroxy-2,2-dimethylpropyl (2S)-2-amino-3-(3,4-dihydroxyphenyl)propanoate]
activation at 10 µM [2]: ≥ 10%
% increase in MCP-1 ([3]; 1 uM): ≥10%
% increase in TIMP-2 ([3]; 10 uM): ≥10%

COC(=O)CCC(=O)SCCNC(=O)CCNC(=O)[C@H](OC(=O)CN)C(C)(C)CO [Compound 1294, methyl 4-[(2-[3-[(2R)-2-[(2-aminoacetyl)oxy]-4-hydroxy-3,3-dimethylbutanamido]propanamido]ethyl)sulfanyl]-4-oxobutanoate]
inhibition at 1 µM ([2]; read-out: % decrease in sIL-17): ≥ 20%
% decrease in MMP-9 ([3]; 1 uM): ≥10%
% increase in IL-1α ([3]; 10 uM): ≥10%

C[C@@H](O)CC(=O)CC(=O)SCCNC(=O)CCNC(=O)[C@H](O)C(C)(C)CO [Compound 42, (2R)-2,4-dihydroxy-N-[2-[(2-[[(5R)-5-hydroxy-3-oxohexanoyl]sulfanyl]ethyl)carbamoyl]ethyl]-3,3-dimethylbutanamide]
% increase in MCP-1 ([3]; 10 uM): ≥10%

CC(C)(COC(=O)CCC(=O)O)[C@@H](O)C(=O)NCCC(=O)NCCS [Compound 1310, (R)-4-(3-hydroxy-4-((3-((2-mercaptoethyl)amino)-3-oxopropyl)amino)-2,2-dimethyl-4-oxobutoxy)-4-oxobutanoic acid]
activation at 10 µM [1, 4]: ≥ 10%

COC(=O)/C=C/C(=O)SCCNC(=O)CCNC(=O)[C@H](O)C(C)(C)COP(=O)(O)O [Compound 73, methyl (R,E)-4-((2-(3-(2-hydroxy-3,3-dimethyl-4-(phosphonooxy)butanamido)propanamido)ethyl)thio)-4-oxobut-2-enoate]
activation at 10 µM [1, 5]: ≥ 10%

CC(=O)SCCNC(=O)CCNC(=O)[C@H](O)C(C)(C)COC(=O)[C@H](C)N [Compound 502, (3R)-3-[(2-[[2-(acetylsulfanyl)ethyl]carbamoyl]ethyl)carbamoyl]-3-hydroxy-2,2-dimethylpropyl (2S)-2-aminopropanoate]
inhibition at 1 µM ([2]; read-out: % decrease in sIL-17): ≥ 20%
activation at 10 µM [2]: ≥ 10%

CC(C)(CO)[C@@H](OC(=O)CCC(=O)O)C(=O)NCCC(=O)NCCS [Compound 1311, (R)-4-((4-hydroxy-1-((3-((2-mercaptoethyl)amino)-3-oxopropyl)amino)-3,3-dimethyl-1-oxobutan-2-yl)oxy)-4-oxobutanoic acid]
activation at 10 µM [1, 4]: ≥ 10%

C[C@H](CC(=O)SCCNC(=O)CCNC(=O)[C@H](O)C(C)(C)CO)OC(=O)CCC(=O)O [Compound 1243, 4-{[(2R)-4-[(2-{3-[(2R)-2,4-dihydroxy-3,3-dimethylbutanamido]propanamido}ethyl)sulfanyl]-4-oxobutan-2-yl]oxy}-4-oxobutanoic acid]
activation at 10 µM [1, 4]: ≥ 10%

CC1(CC(=O)SCCNC(=O)CCNC(=O)[C@H](O)C(C)(C)CO)OCCO1 [Compound 1252, (R)—S-(2-(3-(2,4-dihydroxy-3,3-dimethylbutanamido)propanamido)ethyl)-2-(2-methyl-1,3-dioxolan-2-yl)ethanethioate]
activation at 10 µM [1, 4]: ≥ 10%

CC(=O)SCCNC(=O)CCNC(=O)[C@H](O)C(C)(C)COC(=O)CCC(=O)O [Compound 1242, (R)-12-hydroxy-13,13-dimethyl-2,7,11,16-tetraoxo-15-oxa-3-thia-6,10-diazanonadecan-19-oic acid]
activation at 10 µM [1, 4]: ≥ 10%

COC(=O)C(C)C(=O)SCCNC(=O)CCNC(=O)[C@H](O)C(C)(C)CO (some centres unmarked) [Compound 405]
activation at 10 µM [1, 5]: ≥ 10%

COC(=O)CCC(=O)SCCNC(=O)CCNC(=O)[C@H](O)C(C)(C)COC(C)=O [Compound 138]
inhibition at 1 µM ([2]; read-out: % decrease in sIL-17): ≥ 20%
% increase in SRB ([3]; 10 uM): ≥10%

CCC(C)C(=O)CC(=O)SCCNC(=O)CCNC(=O)[C@H](O)C(C)(C)CO (stereo partly drawn) [Compound 1240, S-(2-(3-((R)-2,4-dihydroxy-3,3-dimethylbutanamido)propanamido)ethyl) 4-methyl-3-oxohexanethioate]
activation at 10 µM [1, 5]: ≥ 10%

COC(=O)CCC(=O)SCCNC(=O)CCNC(=O)[C@H](OC(=O)CNC(C)=O)C(C)(C)CO [Compound 1298, methyl 4-[(2-[3-[(2R)-2-[(2-acetamidoacetyl)oxy]-4-hydroxy-3,3-dimethylbutanamido]propanamido]ethyl)sulfanyl]-4-oxobutanoate]
activation at 1 µM [2]: ≥ 10%

CC(=O)OCC(C)(C)[C@@H](OC(C)=O)C(=O)NCCC(=O)NCCSC(C)=O [Compound 1264, (1R)-3-(acetyloxy)-1-[(2-[[2-(acetylsulfanyl)ethyl]carbamoyl]ethyl)carbamoyl]-2,2-dimethylpropyl acetate]
% decrease in IL-1a ([3]; 1 uM): ≥10%
% increase in MCP-1 ([3]; 1 uM): ≥10%

CC(C)(CO)[C@@H](O)C(=O)NCCC(=O)NCCSC(=O)[C@@H](N)Cc1ccc(O)c(O)c1 [Compound 371, (2R)—N-[2-[(2-[[(2S)-2-amino-3-(3,4-dihydroxyphenyl)propanoyl]sulfanyl]ethyl)carbamoyl]ethyl]-2,4-dihydroxy-3,3-dimethylbutanamide]
inhibition at 10 µM ([2]; read-out: % decrease in sIL-17): ≥ 20%
% increase in MMP-9 ([3]; 1 uM): ≥10%
% increase in MCP-1 ([3]; 1 uM): ≥10%

CCCCCCC(=O)SCCNC(=O)CCNC(=O)[C@H](O)C(C)(C)CO [Compound 372, (2R)—N-(2-[[2-(heptanoylsulfanyl)ethyl]carbamoyl]ethyl)-2,4-dihydroxy-3,3-dimethylbutanamide]
activation at 1 µM [2]: ≥ 10%

CC(C)(CO)[C@@H](O)C(=O)NCCC(=O)NCCSC(=O)C1CCC(=O)N1 (stereo partly drawn) [Compound 1227, S-2-{3-[(R)-2,4-dihydroxy-3,3-dimethylbutyrylamino]propionylamino}ethyl 5-oxo-2-pyrrolidinecarbothioate]
activation at 10 µM [1, 4]: ≥ 10%
